Here are results for one compound from ChEMBL document CHEMBL1149050, “An antifungal polyacetylenic compound from the culture filtrate of the fungus Trametes pubescens” (1994).

Each structure is given as a SMILES string. In brackets after ≈: the same amount, converted by molar mass.

Broadly, the MIC is the lowest concentration that inhibits growth of the organism. A high value points to a less susceptible organism.

What all share (format): functional
The subject of one assay is Candida tropicalis. Description: Antifungal activity against Candida tropicalis DSM1346 after 24 hrs at 37 degC by serial dilution method.
For another assay, the system named is Aspergillus ochraceus. The experiment in a line: Inhibition of spore germination of Aspergillus ochraceus DSM63304 after 24 hrs at 27 degC by serial dilution method.
Another assay deals with Staphylococcus aureus. The experiment in a line: Antibacterial activity against Staphylococcus aureus ATCC 13709 after 24 hrs at 37 degC by serial dilution method. The following applies: ATCC 13709, 24 h.
Another assay has as its system Aspergillus niger. The experiment in a line: Inhibition of spore germination of Aspergillus niger DSM737 after 24 hrs at 27 degC by serial dilution method. The following applies: DSM737, 24 h.
A further assay relates to Bacillus cereus. The experiment in a line: Antibacterial activity against Bacillus cereus DSM318 after 24 hrs at 37 degC by serial dilution method. The following applies: DSM318, 24 h.
Assay [1] has as its system Agrobacterium tumefaciens. The experiment in a line: Antibacterial activity against Agrobacterium tumefaciens ATCC 23308 after 24 hrs at 37 degC by serial dilution method. The following applies: ATCC 23308, 24 h.
The subject of the next assay is Rhodotorula glutinis. Description: Antifungal activity against Rhodotorula glutinis DSM70398 after 24 hrs at 27 degC by serial dilution method.
For the next assay, the system named is Candida albicans. Description: Antifungal activity against Candida albicans ATCC 10231 after 24 hrs at 37 degC by serial dilution method. The following applies: ATCC 10231, 24 h.

For the compound `CC#CC#CC#C[C@@H]1O[C@@H]1CO` (relative stereo), the minimal inhibitory concentration (MIC) was 50 µg/mL (≈ 312 µM) in the assay on Candida tropicalis; 1 µg/mL (≈ 6.24 µM) in the assay with Aspergillus ochraceus; over 100 µg/mL in the assay with Staphylococcus aureus; 1 µg/mL (≈ 6.24 µM) against Aspergillus niger; over 100 µg/mL in the assay on Bacillus cereus; over 100 µg/mL in assay [1]. Also, the minimum inhibitory concentration (MIC) was 10 µg/mL (≈ 62.4 µM) with Rhodotorula glutinis and 50 µg/mL (≈ 312 µM) in the assay on Candida albicans.
